Like-named read-outs stand apart in the source and are kept apart here.
How the values were obtained:
M.tb isolates [1] = type: cell-based, Mycobacterium tuberculosis
M.tb isolates [2] = type: cell-based, Mycobacterium tuberculosis; remark: listed apart in the source
rrs gene = type: binding; conditions: clinical DNA
eis promoter region = type: binding; conditions: clinical DNA
[3] = eis promoter G(−10)A + NM (mixed)
[4] = rrs-A1401G + eis C(−14)T double mutant

Compound: NCC[C@H](O)C(=O)N[C@@H]1C[C@H](N)[C@@H](O[C@H]2O[C@H](CN)[C@@H](O)[C@H](O)[C@H]2O)[C@H](O)[C@H]1O[C@H]1O[C@H](CO)[C@@H](O)[C@H](N)[C@H]1O [AMK, Amikacin]
- Susceptibility (LJ) (M.tb isolates [1]): S and R
- Total number of isolates Susceptible (LJ) (M.tb isolates [1]): 513

Compound: NC[C@H]1O[C@H](O[C@H]2[C@H](O)[C@@H](O[C@H]3O[C@H](CO)[C@@H](O)[C@H](N)[C@H]3O)[C@H](N)C[C@@H]2N)[C@H](O)[C@@H](O)[C@@H]1O [KAN, Kanamycin]
- Susceptibility (LJ) (M.tb isolates [1]): S and R
- Total number of isolates Susceptible (LJ) (M.tb isolates [1]): 497
- Susceptibility (MGIT) (M.tb isolates [2]): R and S
- Total number of isolates Susceptible (MGIT) (M.tb isolates [2]): 447

Compound: cacgACCGCCCGTCACGTCATGAAAGTCGGTcgtg (DNA CACGACCGCCCGTCACGTCATGAAAGTCGGTCGTG; molecular beacon, labels not given here, further chemistry not given here) [rrs-1400, SMB probe targeted against the rrs gene]
- Mean Tm (rrs gene; No mutation (NM), wild type): 70.1 °C
- Mean Tm (rrs gene; eis promoter C(−8) deletion): 70.10 °C
- dTm (Tm difference of mutant from wild type) (rrs gene; eis promoter C(−8) deletion): 0.00 °C
- Mean Tm (rrs gene; eis promoter C(−12)T): 70.15 °C
- dTm (Tm difference of mutant from wild type) (rrs gene; eis promoter C(−12)T): −0.05 °C
- Mean Tm (rrs gene; eis promoter C(−14)T): 70.10 °C
- dTm (Tm difference of mutant from wild type) (rrs gene; eis promoter C(−14)T): 0.00 °C
- Mean Tm (rrs gene; eis promoter G(−10)A): 70.20 °C
- dTm (Tm difference of mutant from wild type) (rrs gene; eis promoter G(−10)A): −0.10 °C
- Mean Tm (rrs gene; [3]): 70.20 °C
- dTm (Tm difference of mutant from wild type) (rrs gene; [3]): −0.10 °C
- Mean Tm (rrs gene; eis promoter G(−37)T): 70.20 °C
- dTm (Tm difference of mutant from wild type) (rrs gene; eis promoter G(−37)T): −0.10 °C
- Mean Tm (rrs gene; rrs gene A1401G): 66.20 °C
- dTm (Tm difference of mutant from wild type) (rrs gene; rrs gene A1401G): 3.9 °C
- dTm (Tm difference of mutant from wild type) (rrs gene; rrs gene A1401G + NM (mixed)): 3.90 °C
- Mean Tm (rrs gene; rrs gene A1401G + NM (mixed, double Tm peak)): 66.20-70.10 °C
- dTm (Tm difference of mutant from wild type) (rrs gene; rrs gene C1402T + NM (mixed)): 5.6 °C
- Mean Tm (rrs gene; rrs gene C1402T + NM (mixed, double Tm peak)): 64.50-70.10 °C
- Mean Tm (rrs gene; [4]): 66.30 °C
- dTm (Tm difference of mutant from wild type) (rrs gene; [4]): 3.80 °C

Compound: ctcgcGGCATATGCCACAGTCGGATTCTcTGACgcgag (DNA CTCGCGGCATATGCCACAGTCGGATTCTCTGACGCGAG; molecular beacon, labels not given here, further chemistry not given here) [eis-2, SMB probe targeted against the eis promoter region]
- Mean Tm (eis promoter region; No mutation (NM), wild type): 69 °C
- Mean Tm (eis promoter region; No mutation (NM), wild type, listed as eis2): 69.00 °C
- Mean Tm (eis promoter region; eis promoter C(−8) deletion): 63.10 °C
- dTm (Tm difference of mutant from wild type) (eis promoter region; eis promoter C(−8) deletion): 5.90 °C
- Mean Tm (eis promoter region; eis promoter C(−12)T): 62.92 °C
- dTm (Tm difference of mutant from wild type) (eis promoter region; eis promoter C(−12)T): 6.08 °C
- Mean Tm (eis promoter region; eis promoter C(−14)T): 62.60 °C
- dTm (Tm difference of mutant from wild type) (eis promoter region; eis promoter C(−14)T): 6.40 °C
- Mean Tm (eis promoter region; eis promoter G(−10)A): 64.70 °C
- dTm (Tm difference of mutant from wild type) (eis promoter region; eis promoter G(−10)A): 4.30 °C
- dTm (Tm difference of mutant from wild type) (eis promoter region; [3]): 4.20 °C
- Mean Tm (eis promoter region; eis promoter G(−10)A + NM (mixed, double Tm peak for eis2)): 64.80-69.10 °C
- Mean Tm (eis promoter region; eis promoter G(−37)T): 69.10 °C
- dTm (Tm difference of mutant from wild type) (eis promoter region; eis promoter G(−37)T): −0.10 °C
- Mean Tm (eis promoter region; rrs gene A1401G): 69.10 °C
- dTm (Tm difference of mutant from wild type) (eis promoter region; rrs gene A1401G): −0.10 °C
- Mean Tm (eis promoter region; rrs gene A1401G + NM (mixed)): 69.10 °C
- dTm (Tm difference of mutant from wild type) (eis promoter region; rrs gene A1401G + NM (mixed)): −0.10 °C
- Mean Tm (eis promoter region; rrs gene C1402T + NM (mixed)): 69.20 °C
- dTm (Tm difference of mutant from wild type) (eis promoter region; rrs gene C1402T + NM (mixed)): −0.20 °C
- Mean Tm (eis promoter region; [4]): 62.50 °C
- dTm (Tm difference of mutant from wild type) (eis promoter region; [4]): 6.50 °C

Reference: US12139768B2, “Polymerase chain reaction primers and probes for Mycobacterium tuberculosis” (Rutgers, The State University of New Jersey, priority 2014, dated 2024)
